Columns and labels:
[1] = tested on: SAGPY (Arrowhead (Pygmaea)); test: Preemergence weed control under flooded paddy conditions; format: in vivo, Sagittaria pygmaea; details: rated 3-4 weeks after treatment
In short: (§1)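 Using flooded silt loam (water 1.5 to 3 cm deep), seeds sown in the top 0.5 cm were exposed preemergence to compound pipetted into the flood at about 0.0313 to 0.500 kg/ha. Effects were scored 0-9 by eye three to four weeks later.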

[2] = tested on: MOOVA (Monochoria); test: as above; format: in vivo, Monochoria vaginalis; details: rated 3-4 weeks after treatment
In short: as §1

[3] = tested on: TRZAWR (Wheat, Winter, cv Riband); test: Preemergence herbicidal evaluation; format: in vivo, Triticum aestivum; details: preemergence, rated 4-5 weeks after treatment, 0-9 scale
In short: (§2)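 Scores use a 0–9 visual scale covering stand, vigor, malformation, size and chlorosis relative to controls, rated four to five weeks after treatment. Before emergence, soil-planted seeds were sprayed with compound in aqueous acetone at roughly 0.0156–0.500 kg/ha and held in the greenhouse.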

[4] = tested on: ZEAMX (Corn, Field); test: Preemergence herbicidal evaluation; format: in vivo, Zea mays; details: preemergence, rated 4-5 weeks after treatment, 0-9 scale
In short: as §2

[5] = tested on: ORYSAT (Rice, Tebonnet); test: Postemergence herbicidal evaluation; format: in vivo, Oryza sativa, (L.) Tebonnet; details: postemergence
In short: (§3)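 Compound is applied as a foliar spray to seedlings about two weeks old, formulated in equal parts acetone and water with 0.5% TWEEN 20 and delivered at 40 psi to give about 0.0156–0.500 kg per hectare. Injury is rated visually 0–9 after four to five weeks.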

[6] = tested on: SETVI (Foxtail, Green); test: Preemergence herbicidal evaluation; format: in vivo, Setaria viridis; details: preemergence, rated 4-5 weeks after treatment, 0-9 scale
In short: as §2

[7] = tested on: CHEAL (Lambsquarters, Common); test: Postemergence herbicidal evaluation; format: in vivo, Chenopodium album; details: postemergence
In short: as §3

[8] = tested on: ORYSAT (Rice, Tebonnet); test: Preemergence herbicidal evaluation; format: in vivo, Oryza sativa, (L.) Tebonnet; details: preemergence, rated 4-5 weeks after treatment, 0-9 scale
In short: as §2

[9] = tested on: GALAP (Galium); test: Preemergence herbicidal evaluation; format: in vivo, Galium aparine; details: preemergence, rated 4-5 weeks after treatment, 0-9 scale
In short: as §2

[10] = tested on: CYPIR (Rice Flatsedge); test: Preemergence weed control under flooded paddy conditions; format: in vivo, Cyperus iria; details: rated 3-4 weeks after treatment
In short: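 Herbicidal effect is scored visually on a 0-9 scale against an untreated control, three to four weeks after compounds are pipetted into the flood water (1.5 to 3 cm deep) over seeds planted in silt loam at 0.5 cm depth. Rates: about 0.0313 to 0.500 kg/ha.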

[11] = tested on: ECHCG (Barnyardgrass); test: Postemergence herbicidal evaluation; format: in vivo, Echinochloa crus-galli; details: postemergence
In short: as §3

[12] = tested on: CYPSE (Flatsedge); test: Postemergence weed control under flooded paddy conditions; format: in vivo, Cyperus serotinus; details: postemergence weeds, rated 3 to 4 weeks after treatment
In short: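 Injury ratings (0–9 scale covering stand, vigor, malformation, size, chlorosis and overall appearance versus control) were made three to four weeks after treatment. Test material, about 0.0313 to 0.500 kg/ha a.i. in 50/50 v/v aqueous/acetone, was added to flood water 1.5 to 3 cm deep over 3 to 5 cm weeds and 1.5 to 2.5 leaf rice.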

[13] = tested on: GLXMAW (Soybean, Williams); test: Preemergence herbicidal evaluation; format: in vivo, Glycine max, (L.) Merr. cv Williams; details: preemergence, rated 4-5 weeks after treatment, 0-9 scale
In short: as §2

[14] = tested on: CASOB (Sicklepod); test: Postemergence herbicidal evaluation; format: in vivo, Cassia obtusifolia; details: postemergence
In short: as §3

## CCOC(=O)CN1C(=O)C(CC(=O)NOC)SC1=Nc1cc(-n2c(=O)cc(C(F)(F)F)n(C)c2=O)c(F)cc1Cl (stereo not shown) [Compound 83, Ethyl 2-{{2-chloro-5-[3,6-dihydro-3-methyl-2,6-dioxo-4-(trifluoromethyl)-1(2H)-pyrimidinyl]-4-fluorophenyl}imino}-5-[(methoxycarbamoyl)methyl]-4-oxo-3-thiazolidineacetate]
[1]; 0.0313 kg/ha
  SAGPY herbicidal effect rating: 7.0
[1]; 0.0625 kg/ha
  SAGPY herbicidal effect rating: 7.0
[1]; 0.1250 kg/ha
  SAGPY herbicidal effect rating: 7.0
[1]; 0.2500 kg/ha
  SAGPY herbicidal effect rating: 9.0
[2]; 0.0313 kg/ha
  MOOVA herbicidal effect rating: 9.0
[2]; 0.0625 kg/ha
  MOOVA herbicidal effect rating: 9.0
[2]; 0.1250 kg/ha
  MOOVA herbicidal effect rating: 9.0
[2]; 0.2500 kg/ha
  MOOVA herbicidal effect rating: 9.0
[3]; 0.0156 kg/ha
  TRZAWR rating: 0.0
[3]; 0.0313 kg/ha
  TRZAWR rating: 0.0
[3]; 0.0625 kg/ha
  TRZAWR rating: 0.0
[3]; 0.1250 kg/ha
  TRZAWR rating: 0.0
[3]; 0.2500 kg/ha
  TRZAWR rating: 0.0
[3]; 0.5000 kg/ha
  TRZAWR rating: 5.0
[4]; 0.0156 kg/ha
  ZEAMX rating: 0.0
[4]; 0.0313 kg/ha
  ZEAMX rating: 0.0
[4]; 0.0625 kg/ha
  ZEAMX rating: 0.0
[4]; 0.1250 kg/ha
  ZEAMX rating: 0.0
[4]; 0.2500 kg/ha
  ZEAMX rating: 0.0
[4]; 0.5000 kg/ha
  ZEAMX rating: 7.0
[5]; rate 0.0156 kg/ha
  ORYSAT herbicidal rating: 1.5
[5]; rate 0.0313 kg/ha
  ORYSAT herbicidal rating: 2.5
[5]; rate 0.0625 kg/ha
  ORYSAT herbicidal rating: 3.0
[5]; rate 0.1250 kg/ha
  ORYSAT herbicidal rating: 3.0
[6]; 0.0156 kg/ha
  SETVI rating: 0.0
[6]; 0.0313 kg/ha
  SETVI rating: 0.0
[6]; 0.0625 kg/ha
  SETVI rating: 0.0
[6]; 0.1250 kg/ha
  SETVI rating: 2.0
[6]; 0.2500 kg/ha
  SETVI rating: 9.0
[6]; 0.5000 kg/ha
  SETVI rating: 9.0
[7]; rate 0.0156 kg/ha
  CHEAL herbicidal rating: 5.0
[7]; rate 0.0313 kg/ha
  CHEAL herbicidal rating: 7.0
[7]; rate 0.0625 kg/ha
  CHEAL herbicidal rating: 9.0
[7]; rate 0.1250 kg/ha
  CHEAL herbicidal rating: 9.0
[8]; 0.0156 kg/ha
  ORYSAT rating: 0.0
[8]; 0.0313 kg/ha
  ORYSAT rating: 0.0
[8]; 0.0625 kg/ha
  ORYSAT rating: 0.0
[8]; 0.1250 kg/ha
  ORYSAT rating: 0.0
[8]; 0.2500 kg/ha
  ORYSAT rating: 0.0
[8]; 0.5000 kg/ha
  ORYSAT rating: 5.0
[9]; 0.0156 kg/ha
  GALAP rating: 0.0
[9]; 0.0313 kg/ha
  GALAP rating: 0.0
[9]; 0.0625 kg/ha
  GALAP rating: 0.0
[9]; 0.1250 kg/ha
  GALAP rating: 0.0
[9]; 0.2500 kg/ha
  GALAP rating: 9.0
[9]; 0.5000 kg/ha
  GALAP rating: 9.0
[10]; 0.0313 kg/ha
  CYPIR herbicidal effect rating: 5.0
[10]; 0.0625 kg/ha
  CYPIR herbicidal effect rating: 6.0
[10]; 0.1250 kg/ha
  CYPIR herbicidal effect rating: 6.0
[10]; 0.2500 kg/ha
  CYPIR herbicidal effect rating: 7.0
[11]; rate 0.0156 kg/ha
  ECHCG herbicidal rating: 0.0
[11]; rate 0.0313 kg/ha
  ECHCG herbicidal rating: 2.0
[11]; rate 0.0625 kg/ha
  ECHCG herbicidal rating: 4.0
[11]; rate 0.1250 kg/ha
  ECHCG herbicidal rating: 9.0
[12]; Rate 0.0313 kg/ha
  Herbicidal rating CYPSE: 0.0
[12]; Rate 0.1250 kg/ha
  Herbicidal rating CYPSE: 3.0
[12]; Rate 0.2500 kg/ha
  Herbicidal rating CYPSE: 5.0
[13]; 0.0156 kg/ha
  GLXMAW rating: 0.0
[13]; 0.0313 kg/ha
  GLXMAW rating: 0.0
[13]; 0.0625 kg/ha
  GLXMAW rating: 0.0
[13]; 0.1250 kg/ha
  GLXMAW rating: 0.0
[13]; 0.2500 kg/ha
  GLXMAW rating: 5.0
[13]; 0.5000 kg/ha
  GLXMAW rating: 7.0
[14]; rate 0.0156 kg/ha
  CASOB herbicidal rating: 0.0
[14]; rate 0.0313 kg/ha
  CASOB herbicidal rating: 9.0
[14]; rate 0.0625 kg/ha
  CASOB herbicidal rating: 7.0
[14]; rate 0.1250 kg/ha
  CASOB herbicidal rating: 9.0

Source: patent US20020137929A1, “1 - (3-heterocyclylphenyl) isothiourea, -isourea, -guanidine and -amidine herbicidal agents” (Intellectual Property Department, BASF Aktiengesellschaft, priority 1998, published 2002)
